Tested on: converting enzyme (enzyme for conversion of angiotensin I to angiotensin II)
Experiment: Inhibition of the converting enzyme (angiotensin I / angiotensin II pressor response) after oral administration to unanesthetized dogs
Type: in vivo
Conditions: 1 mg/kg
Experimental: The compound of the invention for which E=H was tested by oral administration on unanesthetized dogs. The arterial blood pressure of the dogs was measured with a pressure gauge ("Statham P23 Db") after catheterization of the aorta via the femoral artery. The recording is carried out with a recording apparatus ("Brush 400"). Angiotensin I and angiotensin II are injected into the animals intravenously at doses of 0.5 and 0.10 γ/kg, respectively. A dose/activity curve is established for each of these hormones. The compound according to the invention for which E=H is then administered orally at a dose of 1 mg/kg. A second dose/activity curve is then established for angiotensin I and for angiotensin II after administration of the test product.

SMILES: Cl.NCCCC[C@H](N[C@@H](CCc1ccccc1)C(=O)O)C(=O)N1C2CCC(CC2)[C@H]1C(=O)O [compound of the invention for which E=H, (3S)-2-{(S)-N-[(S)-1-carboxy-3-phenylpropyl]lysyl}-3-carboxy-2-azabicyclo[2.2.2]octane hydrochloride]
- percentage inhibition of the converting enzyme (15 minutes after administration): 80%
- percentage inhibition of the converting enzyme (30 minutes after administration): ~100%
- percentage inhibition of the converting enzyme (6 hours after administration): greater than 70%
